Source: the supplement of paper PMC10627819
In brackets after ≈: the same amount, converted by molar mass.

Columns and labels:
[1] = test system: S. aureus Newman; test: fitness (endpoint OD595 vs no drug) (fraction); higher = more growth
Summary of the method: (§1)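 With the first reading as background, OD595 was measured every 30 min for 14 h in 384-well plates kept at 37 °C and inoculated at OD595 0.01. TSB, LB Lennox or CY was the medium. Fitness is the optical density at the transition into stationary phase divided by the robust mean of no-drug control wells, with a cap of 1.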

[2] = test system: S. pneumoniae D39V; test: as above
Summary of the method: as §1

[3] = test system: B. subtilis 168; test: as above
Summary of the method: as §1

[4] = test system: S. aureus DSM 20231; test: as above
Summary of the method: as §1

[5] = test system: S. aureus Newman; test: Bliss interaction score (quartile over a dose matrix) (fitness difference); higher = more antagonism (negative = synergy)
Summary of the method: (§2)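 Each plate was normalised to the robust mean of its own no-drug wells, using OD595 at entry into stationary phase, with values capped at 1. This normalised growth is the fitness value. The Bliss score is the difference between observed and product-expected fitness, with single-drug fitness inferred from the combination data and quartiles taken over technical, biological and donor/recipient replicates.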

[6] = test system: S. pneumoniae D39V; test: as above
Summary of the method: as §2

[7] = test system: B. subtilis 168; test: as above
Summary of the method: as §2

[8] = test system: S. aureus DSM 20231; test: as above
Summary of the method: as §2

[9] = test system: S. aureus Newman
[10] = test system: S. pneumoniae D39V
[11] = test system: B. subtilis 168
[12] = test system: S. aureus DSM 20231
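Wherever Bliss interaction score (quartile over a dose matrix) is given: first quartile when negative (synergy) and third quartile when positive (antagonism).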

C[n+]1ccc(-c2cc[n+](C)cc2)cc1 [Paraquat] + COc1ccc(C[C@H](N)C(=O)N[C@H]2[C@@H](O)[C@H](n3cnc4c(N(C)C)ncnc43)O[C@@H]2CO)cc1 [Puromycin]
fitness
Conditions	first compound 1.25 µg/mL	first compound 1.5 µg/mL	first compound 2.5 µg/mL	first compound 3 µg/mL	first compound 5 µg/mL	first compound 6 µg/mL
[1], partner 0.39 µg/mL	0.937	–	0.965	–	0.979	–
[1], partner 0.78 µg/mL	≥ 1	–	0.99	–	0.981	–
[1], partner 1.56 µg/mL	≥ 1	–	0.971	–	0.994	–
[2], partner 1 µg/mL	–	0.996	–	≥ 1	–	≥ 1
[2], partner 2 µg/mL	–	0.973	–	0.982	–	0.966
[2], partner 4 µg/mL	–	0.852	–	0.856	–	0.861
[3], partner 0.39 µg/mL	0.957	–	0.913	–	0.792	–
[3], partner 0.78 µg/mL	0.924	–	0.894	–	0.779	–
[3], partner 1.56 µg/mL	0.883	–	0.858	–	0.747	–
[4], partner 0.39 µg/mL	0.978	–	0.98	–	0.977	–
[4], partner 0.78 µg/mL	0.97	–	≥ 1	–	0.983	–
[4], partner 1.56 µg/mL	0.964	–	≥ 1	–	0.989	–

fitness, [4], one replicate
Conditions	first compound 1.25 µg/mL	first compound 2.5 µg/mL	first compound 5 µg/mL
partner 3.12 µg/mL	0.926	0.976	0.965
partner 6.24 µg/mL	0.732	0.703	0.689

Conditions	Bliss interaction score
[5]	0.0892
[6]	0.135
[7]	0.0238
[8]	0.0717

C[n+]1ccc(-c2cc[n+](C)cc2)cc1 [Paraquat] + Cc1cc(NS(=O)(=O)c2ccc(N)cc2)no1 [Sulfamethoxazol]
fitness
Conditions	partner 1 µg/mL	partner 2 µg/mL	partner 4 µg/mL
[1], first compound 1.25 µg/mL	0.977	0.946	0.915
[1], first compound 2.5 µg/mL	0.985	0.964	–
[1], first compound 5 µg/mL	0.928	0.969	0.881
[2], first compound 1.5 µg/mL	0.979	0.971	0.926
[2], first compound 3 µg/mL	0.966	0.992	0.931
[2], first compound 6 µg/mL	0.995	0.986	0.94
[3], first compound 1.25 µg/mL	0.928	0.901	0.976
[3], first compound 2.5 µg/mL	0.901	0.883	0.911
[3], first compound 5 µg/mL	0.821	0.823	0.853
[4], first compound 1.25 µg/mL	0.952	0.959	0.946
[4], first compound 2.5 µg/mL	0.882	0.866	0.842
[4], first compound 5 µg/mL	0.812	0.868	0.885

fitness, one replicate
Conditions	first compound 1.25 µg/mL	first compound 2.5 µg/mL	first compound 5 µg/mL
[1], partner 8 µg/mL	0.949	0.818	0.874
[3], partner 0.5 µg/mL	0.922	≥ 1	0.82

Conditions	Bliss interaction score
[5]	0.0523
[6]	-0.0314
[7]	0.0341
[8]	-0.0548

Cn1c2cccc(=O)c-2nc2ccccc21 [Pyocyanin]
Conditions	MIC [µg/mL]
[9]	5 (≈ 23.8 µM)
[10]	1.44 (≈ 6.85 µM)
[11]	5 (≈ 23.8 µM)
[12]	5 (≈ 23.8 µM)

fitness
Conditions	0.325 µg/mL	0.65 µg/mL	1.25 µg/mL	1.3 µg/mL	2.5 µg/mL	5 µg/mL
[1]	–	–	0.896	–	0.843	0.399
[2]	≥ 1	0.991	–	0.835	–	–
[3]	–	–	0.886	–	0.841	0.708
[4]	–	–	0.997	–	0.892	0.59

Cn1c2cccc(=O)c-2nc2ccccc21 [Pyocyanin] + CC1=C\[C@@H](O)CC(=O)Cc2nc(co2)C(=O)N2CCC=C2C(=O)O[C@H](C(C)C)[C@H](C)/C=C/C(=O)NC\C=C\1 [Virginiamycin M1]
fitness
Conditions	[1]	[2]	[3]	[4]
first compound 0.325 µg/mL, partner 0.5 µg/mL	–	≥ 1	–	–
first compound 0.325 µg/mL, partner 1 µg/mL	–	≥ 1	–	–
first compound 0.325 µg/mL, partner 2 µg/mL	–	0.969	–	–
first compound 0.65 µg/mL, partner 0.5 µg/mL	–	≥ 1	–	–
first compound 0.65 µg/mL, partner 1 µg/mL	–	≥ 1	–	–
first compound 0.65 µg/mL, partner 2 µg/mL	–	0.992	–	–
first compound 1.25 µg/mL, partner 0.0625 µg/mL	0.823	–	0.924	0.883
first compound 1.25 µg/mL, partner 0.125 µg/mL	0.833	–	0.89	0.923
first compound 1.25 µg/mL, partner 0.25 µg/mL	0.823	–	0.885	0.808
first compound 1.3 µg/mL, partner 2 µg/mL	–	0.828	–	–
first compound 2.5 µg/mL, partner 0.0625 µg/mL	0.752	–	0.862	0.854
first compound 2.5 µg/mL, partner 0.125 µg/mL	0.766	–	0.84	0.86
first compound 2.5 µg/mL, partner 0.25 µg/mL	0.776	–	0.857	0.89
first compound 5 µg/mL, partner 0.0625 µg/mL	0.369	–	0.734	0.562
first compound 5 µg/mL, partner 0.125 µg/mL	0.422	–	0.741	0.589
first compound 5 µg/mL, partner 0.25 µg/mL	0.352	–	0.758	0.621

fitness, one replicate
Conditions	partner 0.15 µg/mL	partner 0.3 µg/mL	partner 0.5 µg/mL	partner 1 µg/mL	partner 2 µg/mL
[1], first compound 1.25 µg/mL	–	–	0.921	≥ 1	0.92
[1], first compound 2.5 µg/mL	–	–	0.939	0.965	0.952
[1], first compound 5 µg/mL	–	–	0.844	0.885	0.734
[2], first compound 0.325 µg/mL	≥ 1	0.988	–	–	–
[2], first compound 0.65 µg/mL	≥ 1	0.994	–	–	–
[2], first compound 1.3 µg/mL	0.935	0.859	0.878	0.815	–
[4], first compound 1.25 µg/mL	–	–	0.913	0.882	–
[4], first compound 2.5 µg/mL	–	–	0.816	0.787	–
[4], first compound 5 µg/mL	–	–	0.556	0.616	–

Conditions	Bliss interaction score
[5]	0.0515
[6]	0.0505
[7]	-0.0635
[8]	-0.0636
